Assay results reported in US20150177202A1, “ODOR THRESHOLD TEST” (University of Tennessee Research Foundation, priority 2013, published 2015).
Several values for one entry are separate records, joined by “and”; a condition that tells them apart may be missing. Equal entries are not always repeated.

Experiments:
[1] = test system: olfactory system; assay: WUTC Odor Threshold Test (yes-no detection of odorant dilutions in water, signal detection analysis); format: in vivo, human; set-up: Estimated odorant threshold, Mean / Mean estimated threshold / Estimated odorant threshold, Minimum: unit not given here; conditions: for Threshold: combined trials of all 33 subjects, logistic regression, p=0.5; for Estimated threshold compared with literature value: in vivo; for Estimated odorant threshold, Maximum: maximum of individual participant thresholds, in ppm; for Estimated odorant threshold, Mean: mean of individual participant thresholds; for Estimated odorant threshold, Minimum: minimum of individual participant thresholds
Description: The present study involved the creation and study of a new test of olfactory ability, deemed the Wheeler University of Tennessee, Chattanooga (WUTC) Odor Threshold Test. This test was developed building upon the methodology behind signal detection theory as it allowed for multiple measures of olfactory ability to be calculated from a single test. These measures are sensitivity, response-bias, and threshold. Unlike currently available threshold tests, the WUTC Odor Threshold Test utilizes a randomized, multiple odor administration along with the presentation of blank concentrations.
A total of thirty three participants (N=33), collected from the UTC campus, were administered the WUTC threshold test.
To make the test, odorant molecules were first dissolved in a purified H2O solvent following their individual levels of solubility to create standard solutions. These standards were the highest concentration for each odorant and the base from which all successive dilutions were made. Liquid odorants ethanol, pinene, and isoamyl acetate were diluted by volume whereas para-cresol and vanillin were diluted by mass. Each standard was rounded to the nearest μL. A total of nine concentrations were made from each standard solution and diluted at a ratio of 1:2. The highest concentration for each odor as well as concentration ranges were chosen based on literature threshold values and a small, preliminary testing period. Solutions (10 mL) of each odorant were diluted and contained in sterilized and dried glass vials with black, screw-top lids (see FIG. 12).
Blanks were made using 10 mL of the same purified H2O used as a solvent for the other odorants. The final test contained 45 vials with odorant concentrations and nine blanks for a total of 54 vials. Tests were remade after either one month or ten administrations had been reached to avoid any amount of loss of odor strength that could result from extended shelf time or exposure to air during administrations. Before reproducing the test, vials underwent sterilization and drying procedures.
Each subject was instructed to complete the provided demographic form (see below). […] Each participant was then seated in a cushioned, high backed chair facing away from a table where each testing vial was placed. In a brief tutorial to the test, subjects were instructed that they would be presented with a number of vials, some containing odors and some not, one at a time. Subjects were then told that they would only be required to smell the contents of the vial and verbally give a “yes” or “no” answer as to whether they detected anything. […] Once the subject felt comfortable with the instructions presented in this tutorial, the actual test was started.
Following a randomly generated number sequence for each subject, a seated test administrator would select the correspondingly numbered test vial for each trial, place it in tongs, and hand it to a second administrator that, like the participant, was facing away from the administration table. […] The “yes” or “no” response given by the subject was recorded by the first administrator and the vial and tongs were returned to him/her by the second administrator. This procedure was repeated for each of the odorant tubes in the test with each tube presented to the participant twice.

[2] = test system: trigeminal nerve; conditions: cited from earlier work
[3] = test system: premature newborn infants; conditions: olfactory stimulation; cited from earlier work
[4] = concentration 1 (lowest), combined participant trials
[5] = concentration 2, combined participant trials
[6] = concentration 3, combined participant trials
[7] = concentration 4, combined participant trials
[8] = concentration 5, combined participant trials
[9] = concentration 6, combined participant trials
[10] = concentration 7, combined participant trials
[11] = concentration 8, combined participant trials
[12] = concentration 9 (highest), combined participant trials

SMILES | Threshold [1] | Mean A′ [1, 4] | Mean d′ [1, 4] | Mean A′ [1, 5] | Mean d′ [1, 5] | Mean A′ [1, 6] | Mean d′ [1, 6] | Mean A′ [1, 7] | Mean d′ [1, 7] | Mean A′ [1, 8] | Mean d′ [1, 8] | Mean A′ [1, 9] | Mean d′ [1, 9] | Mean A′ [1, 10] | Mean d′ [1, 10] | Mean A′ [1, 11] | Mean d′ [1, 11] | Mean A′ [1, 12] | Mean d′ [1, 12] | Estimated threshold compared with literature value [1] | further results
CCO [Ethanol, ethanol] | 263.750 ppm | 0.757 | 0.898 | 0.716 | 0.704 | 0.514 | 0.035 | 0.741 | 0.819 | 0.561 | 0.16 | 0.766 | 0.941 | 0.668 | 0.513 | 0.789 | 1.066 | 0.804 | 1.154 | at or within literature values | Mean estimated threshold ([1]; African Americans): 112.069; Mean estimated threshold ([1]; Caucasians): 344.968; Estimated odorant threshold, Maximum [1]: 942.747; Estimated odorant threshold, Mean [1]: 251.808; Estimated odorant threshold, Minimum [1]: 1.057; Mean estimated threshold ([1]; participants with headaches (N=8)): 396.631; Mean estimated threshold ([1]; participants without headaches (N=12)): 155.260; Concentration causing irritation of the trigeminal nerve [2]: over 1000 ppm
CC(=O)OCCC(C)C [Isoamyl Acetate, isoamyl acetate] | 38.274 ppm | 0.407 | −0.249 | 0.424 | −0.198 | 0.424 | −0.198 | 0.478 | −0.053 | 0.716 | 0.704 | 0.716 | 0.704 | 0.796 | 1.11 | 0.826 | 1.299 | 0.781 | 1.024 | below its literature value | Estimated odorant threshold, Maximum [1]: 65.102; Estimated odorant threshold, Mean [1]: 13.935; Estimated odorant threshold, Minimum [1]: 0.513
CC1=CCC2CC1C2(C)C [Pinene, L-α-pinene] | 275.598 ppm | 0.407 | −0.249 | 0.757 | 0.898 | 0.561 | 0.16 | 0.514 | 0.035 | 0.668 | 0.513 | 0.724 | 0.742 | 0.847 | 1.458 | 0.901 | 2.097 | 0.875 | 1.72 | greater than values found | Estimated odorant threshold, Maximum [1]: 795.338; Estimated odorant threshold, Mean [1]: 251.225; Estimated odorant threshold, Minimum [1]: 0.778; Activity as an irritant [2]: nearly inactive as an irritant
COc1cc(C=O)ccc1O [Vanillin, vanillin] | 112.426 ppm | 0.39 | −0.302 | 0.478 | −0.053 | 0.531 | 0.077 | 0.625 | 0.359 | 0.561 | 0.16 | 0.678 | 0.55 | 0.781 | 1.024 | 0.796 | 1.11 | 0.888 | 1.885 | greater than values found | Estimated odorant threshold, Maximum [1]: 339.932; Estimated odorant threshold, Mean [1]: 119.978 and 19.978; Estimated odorant threshold, Minimum [1]: 2.619; Mean estimated threshold ([1]; subjects with asthma (N=8)): 207.137; Mean estimated threshold ([1]; subjects without asthma (N=18)): 86.084; Effect on apnea [3]: significantly prevent apnea
CCCCO [n-butanol, reference compound] | – | – | – | – | – | – | – | – | – | – | – | – | – | – | – | – | – | – | – | – | Concentration causing irritation of the trigeminal nerve [2]: approximately 200 ppm
Cc1ccc(O)cc1 [para-cresol] | 1.058 ppm | 0.356 | −0.416 | 0.561 | 0.16 | 0.614 | 0.32 | 0.614 | 0.32 | 0.313 | 0.475 | 0.804 | 1.154 | 0.847 | 1.458 | 0.84 | 1.403 | 0.908 | 2.246 | at or within literature values | Estimated odorant threshold, Maximum [1]: 5.28; Estimated odorant threshold, Mean [1]: 1.340; Estimated odorant threshold, Minimum [1]: 0.005
